Test results reported in US8685970B2, “Quinolines and related analogs as sirtuin modulators” (GlaxoSmithKline, LLC, priority 2008, dated 2014).

Target: T1, SIRT1 (Homo sapiens, UniProt Q96EB6)
T1 sequence (Q96EB6 1-747): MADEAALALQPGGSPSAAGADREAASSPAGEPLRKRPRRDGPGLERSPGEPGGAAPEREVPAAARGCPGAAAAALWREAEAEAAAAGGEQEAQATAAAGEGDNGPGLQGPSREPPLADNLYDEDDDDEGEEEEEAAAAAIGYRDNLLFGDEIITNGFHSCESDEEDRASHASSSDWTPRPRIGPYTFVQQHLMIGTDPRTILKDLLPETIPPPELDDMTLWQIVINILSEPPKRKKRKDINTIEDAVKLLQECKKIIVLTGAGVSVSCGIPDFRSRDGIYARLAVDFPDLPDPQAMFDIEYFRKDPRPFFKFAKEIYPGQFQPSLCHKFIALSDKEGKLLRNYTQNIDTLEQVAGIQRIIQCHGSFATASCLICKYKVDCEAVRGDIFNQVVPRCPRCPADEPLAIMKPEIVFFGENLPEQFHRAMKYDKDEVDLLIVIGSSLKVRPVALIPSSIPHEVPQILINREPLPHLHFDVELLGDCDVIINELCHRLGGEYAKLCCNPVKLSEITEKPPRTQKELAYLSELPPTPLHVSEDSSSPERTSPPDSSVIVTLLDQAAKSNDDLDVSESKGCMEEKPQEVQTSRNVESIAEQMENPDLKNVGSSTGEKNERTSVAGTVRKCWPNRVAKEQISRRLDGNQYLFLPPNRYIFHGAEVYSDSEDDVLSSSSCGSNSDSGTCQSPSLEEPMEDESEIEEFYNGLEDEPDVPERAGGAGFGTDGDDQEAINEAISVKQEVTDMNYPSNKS
Test: Mass spectrometry based SIRT1 deacetylation assay (activation)
Type: biochemical
Conditions: 10 nM SIRT1, 0.5 μM peptide substrate, 120 μM βNAD+, 25 min at 25° C.
Description: A mass spectrometry based assay was used to identify modulators of SIRT1 activity. The mass spectrometry based assay utilizes a peptide having 20 amino acid residues as follows: Ac-EE-K (biotin)-GQSTSSHSK (Ac)N1eSTEG-K(5TMR)-EE-NH2 (SEQ ID NO: 1) wherein K(Ac) is an acetylated lysine residue and Nle is a norleucine. The peptide is labeled with the fluorophore 5TMR (excitation 540 nm/emission 580 nm) at the C-terminus. The sequence of the peptide substrate is based on p53 with several modifications. In addition, the methionine residue naturally present in the sequence was replaced with the norleucine because the methionine may be susceptible to oxidation during synthesis and purification.
The mass spectrometry assay is conducted as follows: 0.5 μM peptide substrate and 120 μM βNAD^+ is incubated with 10 nM SIRT1 for 25 minutes at 25° C. in a reaction buffer (50 mM Tris-acetate pH 8, 137 mM NaCl, 2.7 mM KCl, 1 mM MgCl2, 5 mM DTT, 0.05% BSA). Test compounds may be added to the reaction as described above. The SirT1 gene is cloned into a T7-promoter containing vector and transformed into BL21(DE3). After the 25 minute incubation with SIRT1, 10 μL of 10% formic acid is added to stop the reaction. Reactions are sealed and frozen for later mass spec analysis. Determination of the mass of the substrate peptide allows for precise determination of the degree of acetylation (i.e. starting material) as compared to deacetylated peptide (product).
A control for inhibition of sirtuin activity is conducted by adding 1 μL of 500 mM nicotinamide as a negative control at the start of the reaction (e.g., permits determination of maximum sirtuin inhibition). A control for activation of sirtuin activity is conducted using 10 nM of sirtuin protein, with 1 μL of DMSO in place of compound, to determine the amount of deacetylation of the substrate at a given timepoint within the linear range of the assay. This timepoint is the same as that used for test compounds and, within the linear range, the endpoint represents a change in velocity.
For the above assay, SIRT1 protein was expressed and purified as follows. The SirT1 gene was cloned into a T7-promoter containing vector and transformed into BL21(DE3). The protein was expressed by induction with 1 mM IPTG as an N-terminal His-tag fusion protein at 18° C. overnight and harvested at 30,000×g. Cells were lysed with lysozyme in lysis buffer (50 mM Tris-HCl, 2 mM Tris[2-carboxyethyl]phosphine (TCEP), 10 μM ZnCl2, 200 mM NaCl) and further treated with sonication for 10 min for complete lysis. The protein was purified over a Ni-NTA column (Amersham) and fractions containing pure protein were pooled, concentrated and run over a sizing column (Sephadex S200 26/60 global). The peak containing soluble protein was collected and run on an Ion-exchange column (MonoQ). Gradient elution (200 mM-500 mM NaCl) yielded pure protein. This protein was concentrated and dialyzed against dialysis buffer (20 mM Tris-HCl, 2 mM TCEP) overnight. The protein was aliquoted and frozen at −80° C. until further use.
Sirtuin modulating compounds that activated SIRT1 were identified using the assay described above and are shown below in Table 1. The EC1.5 values represent the concentration of test compounds that result in 150% activation of SIRT1. The EC1.5 values for the activating compounds are represented by A (EC1.5<1.0 uM), B (EC1.5 1-25 uM), C (EC1.5>25 uM). The percent maximum fold activation is represented by A (Fold activation >200%) or B (Fold Activation <200%). “NT” indicates the compound was not tested in a particular assay.

SMILES	% Fold Act. (percent maximum fold activation)	EC1.5 (concentration of test compound that results in 150% activation of SIRT1)
O=C(Nc1cccc(CN2CCOCC2)c1)c1cccc2ccc(-c3cccc(C(F)F)c3)nc12 [Compound 286]	A (Fold activation >200%)	A (EC1.5<1.0 uM)
O=C(NC1CCCC1)c1cccc2ccc(-c3cccc(O[C@@H]4CCNC4)c3)nc12 [Compound 102]	A (Fold activation >200%)	B (EC1.5 1-25 uM)
Cc1ccc(-c2ccc3cccc(NC(=O)c4cscn4)c3n2)cn1 [Compound 198]	A (Fold activation >200%)	A (EC1.5<1.0 uM)
O=C(NCc1ccncc1)c1cccc2ccc(-c3cccc(O[C@@H]4CCNC4)c3)nc12 [Compound 103]	A (Fold activation >200%)	B (EC1.5 1-25 uM)
c1cncc(CNc2cccc3ccc(-c4cccc(N5CCOCC5)c4)nc23)c1 [Compound 172]		C (EC1.5>25 uM)
O=C(Nc1cccc2ccc(-c3cccc(OC(F)(F)F)c3)nc12)c1cnccn1 [Compound 8]	B (Fold Activation <200%)	A (EC1.5<1.0 uM)
c1cncc(CNc2cccc3ccc(-c4cccc(N5CCCC5)c4)nc23)c1 [Compound 173]		C (EC1.5>25 uM)
O=C(Nc1cccnc1)c1cccc2ccc(-c3ccnc(C(F)F)c3)nc12 [Compound 305]	A (Fold activation >200%)	A (EC1.5<1.0 uM)
O=C(Nc1cccc(CN2CCOCC2)n1)c1cccc2ccc(-c3ccnc(C(F)F)c3)nc12 [Compound 306]	A (Fold activation >200%)	A (EC1.5<1.0 uM)
O=C(Nc1ccncn1)c1cccc2ccc(-c3cccc(N4CCOCC4)c3)nc12 [Compound 111]	A (Fold activation >200%)	A (EC1.5<1.0 uM)
O=C(Nc1nccs1)Nc1cccc2ccc(-c3cccc(OC(F)(F)F)c3)nc12 [Compound 45]	B (Fold Activation <200%)	A (EC1.5<1.0 uM)
O=C(Nc1cccc(CN2CCOCC2)n1)c1cccc2ccc(-c3cccc(C(F)F)c3)nc12 [Compound 287]	A (Fold activation >200%)	A (EC1.5<1.0 uM)
O=S(=O)(Nc1cccc2ccc(-c3cccc(OC(F)(F)F)c3)nc12)N1CCNCC1 [Compound 115]	B (Fold Activation <200%)	B (EC1.5 1-25 uM)
O=C(Nc1cccc2ccc(-c3ccncc3)nc12)c1cscn1 [Compound 77]	A (Fold activation >200%)	A (EC1.5<1.0 uM)
O=C(Nc1nccs1)c1cccc2ccc(-c3cccc(N4CCOCC4)c3)nc12 [Compound 108]	A (Fold activation >200%)	A (EC1.5<1.0 uM)

Results, then the compound that gave them:

% Fold Act. (percent maximum fold activation)	EC1.5 (concentration of test compound that results in 150% activation of SIRT1)	SMILES
A (Fold activation >200%)	A (EC1.5<1.0 uM)	Cc1csc(NC(=O)c2cccc3ccc(-c4cccc(C(F)(F)F)c4)nc23)n1 [Compound 27]
B (Fold Activation <200%)	B (EC1.5 1-25 uM)	O=C(Nc1ccccn1)c1cccc2ccc(-c3ccccc3C(F)(F)F)nc12 [Compound 85]
A (Fold activation >200%)	B (EC1.5 1-25 uM)	Cc1csc(NC(=O)c2cccc3cnc(-c4cccc(C(F)(F)F)c4)nc23)n1 [Compound 281]
	C (EC1.5>25 uM)	O=C(Nc1ncnc2ccc(-c3cccc(C(F)(F)F)c3)nc12)c1cccc(C(F)(F)F)c1 [Compound 258]
A (Fold activation >200%)	A (EC1.5<1.0 uM)	Cc1cc(C)nc(NC(=O)c2cccc3ccc(-c4cccc(C(F)(F)F)c4)nc23)c1 [Compound 53]
A (Fold activation >200%)	B (EC1.5 1-25 uM)	Cc1cc(NC(=O)c2cccc3ccc(-c4cccc(C(F)(F)F)c4)nc23)n(C)n1 [Compound 51]
	C (EC1.5>25 uM)	FC(F)(F)c1cccc(-c2ccc3cccc(CNc4nccs4)c3n2)c1 [Compound 104]
A (Fold activation >200%)	A (EC1.5<1.0 uM)	O=C(Nc1ncc(CN2CCCC2)s1)c1cccc2ccc(-c3cccc(C(F)(F)F)c3)nc12 [Compound 219]
B (Fold Activation <200%)	A (EC1.5<1.0 uM)	CC(C)(C)c1nnc(NC(=O)c2cccc3ccc(-c4cccc(C(F)(F)F)c4)nc23)s1 [Compound 44]
A (Fold activation >200%)	A (EC1.5<1.0 uM)	O=C(Nc1cccnn1)c1cccc2ccc(-c3cccc(C(F)(F)F)c3)nc12 [Compound 100]
A (Fold activation >200%)	A (EC1.5<1.0 uM)	Cc1ccnc(NC(=O)c2cccc3ccc(-c4cccc(C(F)(F)F)c4)nc23)n1 [Compound 49]
A (Fold activation >200%)	A (EC1.5<1.0 uM)	O=C(Nc1nccs1)c1cccc2ccc(-c3cccc(C(F)F)c3)nc12 [Compound 247]
A (Fold activation >200%)	A (EC1.5<1.0 uM)	O=C(Nc1nc(CN2CCCC2)cs1)c1cccc2ccc(-c3cccc(C(F)(F)F)c3)nc12 [Compound 147]
	C (EC1.5>25 uM)	O=C(Nc1cccc(Cl)n1)c1cccc2ccc(-c3cccc(C(F)(F)F)c3)nc12 [Compound 89]
A (Fold activation >200%)	A (EC1.5<1.0 uM)	O=C(Nc1cccc2ccc(-c3cccc(C(F)(F)F)c3)nc12)c1cc[nH]n1 [Compound 224]
